# ChEMBL document CHEMBL1130558, “Synthesis and preliminary structure-activity relationships of 1-[(3-fluoro-4-pyridinyl)amino]-3-methyl-1H-indol-5-yl methyl carbamate (P10358), a novel acetylcholinesterase inhibitor” (Bioorg Med Chem Lett, 1997)
# Active and inactive are the calls of the source.
# Columns and labels:
# Mus musculus [1] = test: The percent of animals in the scopolamine-drug group with latencies greater than the cutoff time at subcutaneous dose of 1.25 mg/kg; format: functional
# [2] = biological target: T1, Acetylcholinesterase (Rattus norvegicus) (UniProt P37136); test: Tested for percent ex vivo inhibition of rat striatal acetylcholinesterase at peroral dose of 20 mg/kg at 4 hr; format: organism-based; set-up: dose 20 mg/kg
# T1 sequence (whole entry): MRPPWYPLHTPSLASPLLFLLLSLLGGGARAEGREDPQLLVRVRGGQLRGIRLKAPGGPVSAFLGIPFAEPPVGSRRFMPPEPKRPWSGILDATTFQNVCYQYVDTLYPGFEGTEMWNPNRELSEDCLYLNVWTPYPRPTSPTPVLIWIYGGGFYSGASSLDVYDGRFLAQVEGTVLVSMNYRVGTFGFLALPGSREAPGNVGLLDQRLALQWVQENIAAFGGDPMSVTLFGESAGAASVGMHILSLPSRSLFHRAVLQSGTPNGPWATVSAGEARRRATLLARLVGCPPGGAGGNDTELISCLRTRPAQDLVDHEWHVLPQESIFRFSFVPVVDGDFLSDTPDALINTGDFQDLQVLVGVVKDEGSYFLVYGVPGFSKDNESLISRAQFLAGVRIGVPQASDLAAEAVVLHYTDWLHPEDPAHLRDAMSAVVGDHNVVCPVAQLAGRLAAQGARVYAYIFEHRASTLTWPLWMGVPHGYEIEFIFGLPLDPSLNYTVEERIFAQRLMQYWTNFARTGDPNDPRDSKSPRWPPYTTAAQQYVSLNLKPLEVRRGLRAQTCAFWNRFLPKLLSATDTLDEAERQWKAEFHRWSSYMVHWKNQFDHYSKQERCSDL
# [3] = biological target: T1, Acetylcholinesterase (Rattus norvegicus); test: Tested for percent ex vivo inhibition of rat striatal acetylcholinesterase at peroral dose of 20 mg/kg at 24 hr; format: organism-based; set-up: dose 20 mg/kg
# Mus musculus [4] = test: Compound evaluated in vivo for reversing the Scopolamine dementia dark avoidance (SDDA) in mice expressed number of active dosages versus the total number of dosages evaluated; 4/9 and active; format: functional, organism-based
# Mus musculus [5] = test: The percent of animals in the scopolamine-drug group with latencies greater than the cutoff time at subcutaneous dose of 0.04 mg/kg;; format: functional
# Cholinesterase [6] = biological target: T2, Cholinesterase (Homo sapiens, UniProt P06276); test: In vitro inhibition of human serum Butyrylcholinesterase using butyrylthiocholine as substrate; 0.01-0.069
# T2 sequence (P06276 whole entry): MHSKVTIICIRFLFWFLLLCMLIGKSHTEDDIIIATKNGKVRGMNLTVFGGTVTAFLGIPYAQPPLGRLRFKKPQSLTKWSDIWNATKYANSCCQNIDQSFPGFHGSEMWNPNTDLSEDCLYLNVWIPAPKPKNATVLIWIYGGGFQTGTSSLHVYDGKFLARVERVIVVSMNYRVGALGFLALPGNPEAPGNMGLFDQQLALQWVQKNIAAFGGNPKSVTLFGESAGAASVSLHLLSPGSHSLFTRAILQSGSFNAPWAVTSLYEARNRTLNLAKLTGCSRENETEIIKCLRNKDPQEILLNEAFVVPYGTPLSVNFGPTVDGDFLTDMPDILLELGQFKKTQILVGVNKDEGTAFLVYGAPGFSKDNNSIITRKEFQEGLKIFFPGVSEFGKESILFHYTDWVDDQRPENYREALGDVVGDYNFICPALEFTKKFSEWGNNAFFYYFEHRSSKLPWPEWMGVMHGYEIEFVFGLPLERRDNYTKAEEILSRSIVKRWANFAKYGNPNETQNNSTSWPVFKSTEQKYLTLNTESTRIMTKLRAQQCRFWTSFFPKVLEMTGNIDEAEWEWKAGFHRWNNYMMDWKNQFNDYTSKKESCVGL
# [7] = biological target: T1, Acetylcholinesterase (Rattus norvegicus); test: Tested for percent ex vivo inhibition of rat striatal acetylcholinesterase at peroral dose of 20 mg/kg at 6 hr; format: organism-based; set-up: dose 20 mg/kg
# [8] = biological target: T1, Acetylcholinesterase (Rattus norvegicus); test: Tested for percent ex vivo inhibition of rat striatal acetylcholinesterase at peroral dose of 20 mg/kg at 1 hr; format: organism-based; set-up: dose 20 mg/kg
# Mus musculus [9] = test: The percent of animals in the scopolamine-drug group with latencies greater than the cutoff time at subcutaneous dose of 2.5 mg/kg; format: functional
# Mus musculus [10] = test: The percent of animals in the scopolamine-drug group with latencies greater than the cutoff time at subcutaneous dose of 5 mg/kg; format: functional
# Acetylcholinesterase [11] = biological target: T3, Acetylcholinesterase (Rattus norvegicus, UniProt P37136); test: Compound was evaluated in vitro in rats for the inhibition of brain (striatal) acetylcholinesterase (AChEI) using acetylthiocholine as substrate; 0.014-0.14
# T3 sequence (P37136 whole entry): T1 sequence (whole entry)
# Mus musculus [12] = test: The percent of animals in the scopolamine-drug group with latencies greater than the cutoff time at subcutaneous dose of 0.01 mg/kg; format: functional
# [13] = biological target: T1, Acetylcholinesterase (Rattus norvegicus); test: Compound was evaluated ex vivo for the inhibition of acetylcholinesterase (AChEI) one hour after oral administration
# Mus musculus [14] = test: Compound evaluated in vivo for reversing the Scopolamine dementia dark avoidance (SDDA) in mice expressed number of active dosages versus the total number of dosages evaluated; 5/7 and active; format: functional, organism-based
# Cholinesterase [15] = biological target: T2, Cholinesterase; test: In vitro inhibition of human serum Butyrylcholinesterase using butyrylthiocholine as substrate; 0.00029-0.001
# Mus musculus [16] = test: The percent of animals in the scopolamine-drug group with latencies greater than the cutoff time at subcutaneous dose of 0.001 mg/kg; format: functional
# Mus musculus [17] = test: The percent of animals in the scopolamine-drug group with latencies greater than the cutoff time at subcutaneous dose of 0.003 mg/kg; format: functional
# Acetylcholinesterase [18] = biological target: T3, Acetylcholinesterase; test: Compound was evaluated in vitro in rats for the inhibition of brain (striatal) acetylcholinesterase (AChEI) using acetylthiocholine as substrate; 0.0026-0.031
# Mus musculus [19] = test: The percent of animals in the scopolamine-drug group with latencies greater than the cutoff time at subcutaneous dose of 1.0 mg/kg; format: functional
# Mus musculus [20] = test: The percent of animals in the scopolamine-drug group with latencies greater than the cutoff time at subcutaneous dose of 0.1 mg/kg; format: functional
# [21] = biological target: T1, Acetylcholinesterase (Rattus norvegicus); test: Tested for percent ex vivo inhibition of rat striatal acetylcholinesterase at peroral dose of 10 mg/kg at 4 hr; format: organism-based; set-up: dose 10 mg/kg
# Cholinesterase [22] = biological target: T2, Cholinesterase; test: In vitro inhibition of human serum Butyrylcholinesterase using butyrylthiocholine as substrate; 0.15-0.22
# Mus musculus [23] = test: The percent of animals in the scopolamine-drug group with latencies greater than the cutoff time at subcutaneous dose of 0.3 mg/kg; format: functional
# [24] = biological target: T1, Acetylcholinesterase (Rattus norvegicus); test: Tested for percent ex vivo inhibition of rat striatal acetylcholinesterase at peroral dose of 10 mg/kg at 6 hr; format: organism-based; set-up: dose 10 mg/kg
# [25] = biological target: T1, Acetylcholinesterase (Rattus norvegicus); test: Dose required to exhibit robust maximal effect for acetylcholinesterase (AChE) inhibition following intraperitoneal administration
# [26] = biological target: T1, Acetylcholinesterase (Rattus norvegicus); test: Tested for percent ex vivo inhibition of rat striatal acetylcholinesterase at peroral dose of 10 mg/kg at 1 hr; format: organism-based; set-up: dose 10 mg/kg
# Acetylcholinesterase [27] = biological target: T3, Acetylcholinesterase; test: Compound was evaluated in vitro in rats for the inhibition of brain (striatal) acetylcholinesterase (AChEI) using acetylthiocholine as substrate; 0.084-0.19
# Mus musculus [28] = test: Compound evaluated in vivo for reversing the Scopolamine dementia dark avoidance (SDDA) in mice expressed number of active dosages versus the total number of dosages evaluated; 3/3 and active; format: functional, organism-based
# Mus musculus [29] = test: The percent of animals in the scopolamine-drug group with latencies greater than the cutoff time at subcutaneous dose of 0.03 mg/kg; format: functional
# [30] = biological target: T1, Acetylcholinesterase (Rattus norvegicus); test: Tested for percent ex vivo inhibition of rat striatal acetylcholinesterase at peroral dose of 10 mg/kg at 24 hr; format: organism-based; set-up: dose 10 mg/kg
# Mus musculus [31] = test: Compound was evaluated in vivo for the significant activity at all doses in reversing the Scopolamine dementia dark avoidance (SDDA) in mice; 1/6; format: functional
# Cholinesterase [32] = biological target: T2, Cholinesterase; test: In vitro inhibition of human serum Butyrylcholinesterase using butyrylthiocholine as substrate; 0.023-0.041
# Mus musculus [33] = test: The percent of animals in the scopolamine-drug group with latencies greater than the cutoff time at subcutaneous dose of 0.63 mg/kg; format: functional
# Acetylcholinesterase [34] = biological target: T3, Acetylcholinesterase; test: Compound was evaluated in vitro in rats for the inhibition of brain (striatal) acetylcholinesterase (AChEI) using acetylthiocholine as substrate; 0.024-0.14
# Acetylcholinesterase [35] = biological target: T3, Acetylcholinesterase; test: Compound was evaluated in vitro in rats for the inhibition of brain (striatal) acetylcholinesterase (AChEI) using acetylthiocholine as substrate; 21-88
# [36] = biological target: T4, Muscarinic acetylcholine receptor M4 (Homo sapiens) (UniProt P08173); test: In vitro inhibition of muscarinic receptor stimulation; NI=No inhibition
# T4 sequence (whole entry): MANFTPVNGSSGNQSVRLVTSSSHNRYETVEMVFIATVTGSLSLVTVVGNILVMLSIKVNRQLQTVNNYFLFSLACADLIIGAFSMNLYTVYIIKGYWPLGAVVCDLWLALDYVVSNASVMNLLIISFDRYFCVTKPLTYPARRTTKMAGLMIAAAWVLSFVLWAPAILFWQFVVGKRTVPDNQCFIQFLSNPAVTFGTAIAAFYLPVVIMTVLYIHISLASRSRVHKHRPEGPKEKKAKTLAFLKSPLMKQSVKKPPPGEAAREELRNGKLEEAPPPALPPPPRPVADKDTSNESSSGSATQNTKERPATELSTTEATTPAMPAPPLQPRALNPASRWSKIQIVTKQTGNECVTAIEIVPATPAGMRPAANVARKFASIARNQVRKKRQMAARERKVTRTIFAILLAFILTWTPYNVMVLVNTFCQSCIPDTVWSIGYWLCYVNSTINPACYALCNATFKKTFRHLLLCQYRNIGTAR
# [37] = biological target: T5, Acetylcholine receptor subunit delta (Torpedo californica) (UniProt P02718); test: In vitro inhibition of Nicotinic acetylcholine receptor stimulation; NI=No inhibition
# T5 sequence (whole entry): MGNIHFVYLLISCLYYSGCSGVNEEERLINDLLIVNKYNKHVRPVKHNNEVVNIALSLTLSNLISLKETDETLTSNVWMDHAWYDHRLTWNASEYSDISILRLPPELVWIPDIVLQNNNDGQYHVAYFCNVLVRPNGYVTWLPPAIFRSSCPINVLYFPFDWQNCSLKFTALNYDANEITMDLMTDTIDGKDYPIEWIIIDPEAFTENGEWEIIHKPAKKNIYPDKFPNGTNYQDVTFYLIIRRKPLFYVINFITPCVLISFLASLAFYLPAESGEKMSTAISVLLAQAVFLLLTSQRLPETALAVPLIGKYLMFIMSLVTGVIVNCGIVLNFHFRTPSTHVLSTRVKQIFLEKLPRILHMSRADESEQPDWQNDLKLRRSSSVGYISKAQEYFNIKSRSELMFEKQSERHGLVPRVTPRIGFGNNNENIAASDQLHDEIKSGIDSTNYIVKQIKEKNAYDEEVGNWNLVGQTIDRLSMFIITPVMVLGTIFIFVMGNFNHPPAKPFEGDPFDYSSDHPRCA
# Mus musculus [38] = test: The percent of animals in the scopolamine-drug group with latencies greater than the cutoff time at subcutaneous dose of 3.0 mg/kg; format: functional
# Mus musculus [39] = test: Compound was evaluated in vivo for the significant activity at all doses in reversing the Scopolamine dementia dark avoidance (SDDA) in mice; 2/3; format: functional
# Acetylcholinesterase [40] = biological target: T3, Acetylcholinesterase; test: Compound was evaluated in vitro in rats for the inhibition of brain (striatal) acetylcholinesterase (AChEI) using acetylthiocholine as substrate; 3.3-4.8
# Cholinesterase [41] = biological target: T2, Cholinesterase; test: In vitro inhibition of human serum Butyrylcholinesterase using butyrylthiocholine as substrate; 0.69-1.2
smiles,measurement,setting,value
CCCN(c1ccncc1F)n1cc(C)c2cc(OC(=O)NCc3ccccc3)ccc21,Response,Mus musculus [1],20%
same,inhibition,[2],12%
same,inhibition,[3],2%
same,Activity,Mus musculus [4],Active
same,Response,Mus musculus [5],20%
same,IC50,Cholinesterase [6],27 nM
same,inhibition,[7],6%
same,inhibition,[8],15%
same,Response,Mus musculus [9],20%
same,Response,Mus musculus [10],20%
same,IC50,Acetylcholinesterase [11],43 nM
CCCCCCCNC(=O)Oc1ccc2c(c1)[C@]1(C)CCN(C)[C@@H]1N2C [EPTASTIGMINE],Response,Mus musculus [12],45%
same,ED50,[13],10.1 mg/kg
same,Activity,Mus musculus [14],Active
same,IC50,Cholinesterase [15],0.69 nM
same,Response,Mus musculus [16],40%
same,Response,Mus musculus [17],53%
same,IC50,Acetylcholinesterase [18],9 nM
same,Response,Mus musculus [19],20%
same,Response,Mus musculus [20],33%
CNC(=O)Oc1ccc2c(c1)c(C)cn2Nc1ccncc1F,inhibition,[21],56%
same,IC50,Cholinesterase [22],190 nM
same,inhibition,[2],84%
same,Response,Mus musculus [23],28%
same,ED50,[13],8.3 mg/kg
same,inhibition,[24],3%
same,inhibition,[3],20%
same,inhibition,[7],82%
same,inhibition,[8],82%
same,DOSE,[25],0.625 mg/kg
same,inhibition,[26],67%
same,IC50,Acetylcholinesterase [27],130 nM
same,Activity,Mus musculus [28],Active
same,Response,Mus musculus [29],40%
same,inhibition,[30],0%
same,Response,Mus musculus [20],21%
CCCN(c1ccncc1F)n1cc(C)c2cc(OC(=O)NC)ccc21,inhibition,[2],41%
same,Activity,Mus musculus [31],1
same,inhibition,[3],9%
same,inhibition,[8],50%
same,IC50,Cholinesterase [32],31 nM
same,Response,Mus musculus [33],27%
same,IC50,Acetylcholinesterase [34],58 nM
CCCCCCCNC(=O)Oc1ccc2c(c1)c(C)cn2N(CCC)c1ccncc1F,IC50,Acetylcholinesterase [35],43000 nM
CCCN(c1ccncc1)n1ccc2ccccc21,Activity,[36],inactive
same,Activity,[37],inactive
CCCCNC(=O)Oc1ccc2c(c1)c(C)cn2N(CCC)c1ccncc1F,Response,Mus musculus [38],33%
same,inhibition,[2],26%
same,inhibition,[3],11%
same,Activity,Mus musculus [39],2
same,IC50,Acetylcholinesterase [40],4000 nM
same,Response,Mus musculus [19],33%
same,IC50,Cholinesterase [41],920 nM
